Measured values from US7807676B2, “Diketo-Piperazine and Piperidine derivatives as antiviral agents” (priority 2006, dated 2010).

These molecules were tested on HIV-1 single-round infectious reporter virus (assay: Single-round infectious HIV-1 luciferase reporter virus infection of HeLa CD4 cells (antiviral EC50)). Conditions: Human immunodeficiency virus 1, HeLa, read-out: EC50 Group from Table 3.
Type: cell-based
Procedure, shortened: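 Compound (≤10 μM final, 10 concentrations) was added to HeLa CD4 cells together with luciferase-reporter HIV-1 pseudovirus (nef replaced by luciferase, envelope supplied in trans) at MOI ~0.01. Cells were lysed 72 h post-infection at 37 °C for luminescence; percent inhibition versus untreated infection, fitted four-parameter logistic for EC50.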

`O=C(C(=O)N1CCN(c2nnnn2-c2ccccc2)CC1)c1c[nH]c2c(-c3cc[nH]n3)ncc(F)c12` [B-28] and `Cn1ccc(-c2ncc(F)c3c(C(=O)C(=O)N4CCN(c5nnnn5-c5ccccc5)CC4)c[nH]c23)n1` [B-29] cannot be ordered by EC50: less than 500 nM for the first, less than 500 nM for the second.

`CN(C)CCn1ccc(-c2ncc(F)c3c(C(=O)C(=O)N4CCN(c5nnnn5-c5ccccc5)CC4)c[nH]c23)n1` [B-30] and `O=C(C(=O)N1CCN(c2nnnn2-c2ccccc2)CC1)c1c[nH]c2c(-c3ccn(CCN4CCOCC4)n3)ncc(F)c12` [B-31] cannot be ordered by EC50: less than 500 nM for the first, less than 500 nM for the second.

Compared with `COc1cc[n+]([O-])c2[nH]cc(C(=O)C(=O)N3CCN(c4nnnn4-c4ccccc4)CC3)c12` [B-32], `CC(=O)c1ncc(F)c2c(C(=O)C(=O)N3CCN(c4nnnn4-c4ccccc4)CC3)c[nH]c12` [B-47] is lower in EC50: greater than 500 nM for the first, less than 500 nM for the second.

`CCOC(=O)c1cc(-c2ncc(F)c3c(C(=O)C(=O)N4CCN(c5nnnn5-c5ccccc5)CC4)c[nH]c23)n[nH]1` [B-33] and `O=C(O)c1cc(-c2ncc(F)c3c(C(=O)C(=O)N4CCN(c5nnnn5-c5ccccc5)CC4)c[nH]c23)n[nH]1` [B-34] cannot be ordered by EC50: less than 500 nM for the first, less than 500 nM for the second.

`CN(C)CCN(C)C(=O)c1cc(-c2ncc(F)c3c(C(=O)C(=O)N4CCN(c5nnnn5-c5ccccc5)CC4)c[nH]c23)n[nH]1` [B-35] and `CN(C)CCCN(C)C(=O)c1cc(-c2ncc(F)c3c(C(=O)C(=O)N4CCN(c5nnnn5-c5ccccc5)CC4)c[nH]c23)n[nH]1` [B-38] cannot be ordered by EC50: less than 500 nM for the first, less than 500 nM for the second.

`CN(CCO)C(=O)c1cc(-c2ncc(F)c3c(C(=O)C(=O)N4CCN(c5nnnn5-c5ccccc5)CC4)c[nH]c23)n[nH]1` [B-36] and `O=C(NCCO)c1cc(-c2ncc(F)c3c(C(=O)C(=O)N4CCN(c5nnnn5-c5ccccc5)CC4)c[nH]c23)n[nH]1` [B-37] cannot be ordered by EC50: less than 500 nM for the first, less than 500 nM for the second.

`CN1CCN(CCCNC(=O)c2cc(-c3ncc(F)c4c(C(=O)C(=O)N5CCN(c6nnnn6-c6ccccc6)CC5)c[nH]c34)n[nH]2)CC1` [B-39] and `O=C(NCCN1CCCC1)c1cc(-c2ncc(F)c3c(C(=O)C(=O)N4CCN(c5nnnn5-c5ccccc5)CC4)c[nH]c23)n[nH]1` [B-40] cannot be ordered by EC50: less than 500 nM for the first, less than 500 nM for the second.

`O=C(NCCc1ccncc1)c1cc(-c2ncc(F)c3c(C(=O)C(=O)N4CCN(c5nnnn5-c5ccccc5)CC4)c[nH]c23)n[nH]1` [B-41] and `O=C(NCCN1CCOCC1)c1cc(-c2ncc(F)c3c(C(=O)C(=O)N4CCN(c5nnnn5-c5ccccc5)CC4)c[nH]c23)n[nH]1` [B-42] cannot be ordered by EC50: less than 500 nM for the first, less than 500 nM for the second.

`CCOC(=O)c1cc(-c2ncc(F)c3c(C(=O)C(=O)N4CCN(c5nnnn5-c5ccccc5)CC4)c[nH]c23)nn1C` [B-43] and `Cn1nc(-c2ncc(F)c3c(C(=O)C(=O)N4CCN(c5nnnn5-c5ccccc5)CC4)c[nH]c23)cc1C(=O)NCCO` [B-44] cannot be ordered by EC50: less than 500 nM for the first, less than 500 nM for the second.

`CN(C)CCCNC(=O)c1cc(-c2ncc(F)c3c(C(=O)C(=O)N4CCN(c5nnnn5-c5ccccc5)CC4)c[nH]c23)nn1C` [B-45] and `CN(C)CCCNC(=O)c1cc(-c2ncc(F)c3c(C(=O)C(=O)N4CCN(c5c[nH]nc5-c5ccccc5)CC4)c[nH]c23)n[nH]1` [B-53] cannot be ordered by EC50: less than 500 nM for the first, less than 500 nM for the second.

Going from `N#Cc1ncc(F)c2c(C(=O)C(=O)N3CCN(c4nnnn4-c4ccccc4)CC3)c[nH]c12` [B-46] to `NC(=O)c1ncc(F)c2c(C(=O)C(=O)N3CCN(c4nnnn4-c4ccccc4)CC3)c[nH]c12` [B-50], the EC50 falls from greater than 500 nM to less than 500 nM. The second is the more potent here.

`CO/N=C(\C)c1ncc(F)c2c(C(=O)C(=O)N3CCN(c4nnnn4-c4ccccc4)CC3)c[nH]c12` [B-48] and `C/C(=N\O)c1ncc(F)c2c(C(=O)C(=O)N3CCN(c4nnnn4-c4ccccc4)CC3)c[nH]c12` [B-49] cannot be ordered by EC50: less than 500 nM for the first, less than 500 nM for the second.

`CCOC(=O)c1cc(-c2ncc(F)c3c(C(=O)C(=O)N4CCN(c5c[nH]nc5-c5ccccc5)CC4)c[nH]c23)n[nH]1` [B-51] and `O=C(NCCO)c1cc(-c2ncc(F)c3c(C(=O)C(=O)N4CCN(c5c[nH]nc5-c5ccccc5)CC4)c[nH]c23)n[nH]1` [B-52] cannot be ordered by EC50: less than 500 nM for the first, less than 500 nM for the second.

`O=C(NCCN1CCOCC1)c1cc(-c2ncc(F)c3c(C(=O)C(=O)N4CCN(c5c[nH]nc5-c5ccccc5)CC4)c[nH]c23)n[nH]1` [B-54] was tested, and the EC50 was less than 500 nM.
